PubChem BioAssay (NCI)
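Tested at 5 concentrations; 48 h exposure; 96-well plates; endpoints linearly interpolated, else capped at highest concentration. Definition used: TGI = concentration required for complete inhibition of growth.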

The molecules below were run on COLO 205 colon (assay: NCI-60 cell line screen, 48 h).
Work on `CCC1(O)C(=O)OCc2c1cc1n(c2=O)Cc2cc3cc(OC)c(OC)cc3nc2-1` (configuration not stated) yielded a TGI greater than 100 µM. For `FC(F)(F)c1cccc(C=NC23CC4CC(CC(C4)C2)C3)c1`, the TGI was greater than 100 µM. Molecule `O=C(CCC(=O)Nc1ccc(Cl)c(Cl)c1)CC(=O)c1ccc(Cl)cc1` has a TGI greater than 100 µM. `COc1ccc(Cc2nccc3cc(OC)c(OC)cc23)cc1` showed a TGI greater than 100 µM. `N#CNC1=NC(Cc2ccccc2)C(=O)N1CCc1c[nH]c2ccccc12` (configuration not stated) gave a TGI of 43.6 µM.

These molecules were tested on IGROV1 ovarian (assay: NCI-60 cell line screen, 48 h).
`CCC1(O)C(=O)OCc2c1cc1n(c2=O)Cc2cc3cc(OC)c(OC)cc3nc2-1` (configuration not stated) gave a TGI of 67.4 µM. Molecule `FC(F)(F)c1cccc(C=NC23CC4CC(CC(C4)C2)C3)c1` has a TGI greater than 100 µM. In the case of `O=C(CCC(=O)Nc1ccc(Cl)c(Cl)c1)CC(=O)c1ccc(Cl)cc1`, the TGI is reported as greater than 100 µM. `COc1ccc(Cc2nccc3cc(OC)c(OC)cc23)cc1` showed a TGI greater than 100 µM. Molecule `N#CNC1=NC(Cc2ccccc2)C(=O)N1CCc1c[nH]c2ccccc12` (configuration not stated) has a TGI greater than 100 µM.

Each molecule was assayed on A549 NSCLC (assay: NCI-60 cell line screen, 48 h).
In the case of `CCC1(O)C(=O)OCc2c1cc1n(c2=O)Cc2cc3cc(OC)c(OC)cc3nc2-1` (configuration not stated), the TGI is reported as greater than 100 µM. `FC(F)(F)c1cccc(C=NC23CC4CC(CC(C4)C2)C3)c1` was tested, and the TGI was greater than 100 µM. `O=C(CCC(=O)Nc1ccc(Cl)c(Cl)c1)CC(=O)c1ccc(Cl)cc1` was tested, and the TGI was greater than 100 µM. For `COc1ccc(Cc2nccc3cc(OC)c(OC)cc23)cc1`, the TGI was greater than 100 µM. With `N#CNC1=NC(Cc2ccccc2)C(=O)N1CCc1c[nH]c2ccccc12` (configuration not stated) the TGI was greater than 100 µM.

These molecules were tested on SF-268 CNS (assay: NCI-60 cell line screen, 48 h).
For `CCC1(O)C(=O)OCc2c1cc1n(c2=O)Cc2cc3cc(OC)c(OC)cc3nc2-1` (configuration not stated), the TGI was greater than 100 µM. For `FC(F)(F)c1cccc(C=NC23CC4CC(CC(C4)C2)C3)c1`, the TGI was greater than 100 µM. Molecule `O=C(CCC(=O)Nc1ccc(Cl)c(Cl)c1)CC(=O)c1ccc(Cl)cc1` has a TGI greater than 100 µM. With `COc1ccc(Cc2nccc3cc(OC)c(OC)cc23)cc1` the TGI was greater than 100 µM. For `N#CNC1=NC(Cc2ccccc2)C(=O)N1CCc1c[nH]c2ccccc12` (configuration not stated), the TGI was 83.5 µM.

Each molecule was assayed on U251 CNS (assay: NCI-60 cell line screen, 48 h).
In the case of `CCC1(O)C(=O)OCc2c1cc1n(c2=O)Cc2cc3cc(OC)c(OC)cc3nc2-1` (configuration not stated), the TGI is reported as 35 µM. For `FC(F)(F)c1cccc(C=NC23CC4CC(CC(C4)C2)C3)c1`, the TGI was greater than 100 µM. `O=C(CCC(=O)Nc1ccc(Cl)c(Cl)c1)CC(=O)c1ccc(Cl)cc1` was tested, and the TGI was greater than 100 µM. With `COc1ccc(Cc2nccc3cc(OC)c(OC)cc23)cc1` the TGI was greater than 100 µM.

Each molecule was assayed on UACC-257 melanoma (assay: NCI-60 cell line screen, 48 h).
Molecule `CCC1(O)C(=O)OCc2c1cc1n(c2=O)Cc2cc3cc(OC)c(OC)cc3nc2-1` (configuration not stated) has a TGI greater than 100 µM. Molecule `FC(F)(F)c1cccc(C=NC23CC4CC(CC(C4)C2)C3)c1` has a TGI greater than 100 µM. With `O=C(CCC(=O)Nc1ccc(Cl)c(Cl)c1)CC(=O)c1ccc(Cl)cc1` the TGI was greater than 100 µM. Work on `COc1ccc(Cc2nccc3cc(OC)c(OC)cc23)cc1` yielded a TGI of 62.2 µM. With `N#CNC1=NC(Cc2ccccc2)C(=O)N1CCc1c[nH]c2ccccc12` (configuration not stated) the TGI was greater than 100 µM.

These molecules were tested on LOX IMVI melanoma (assay: NCI-60 cell line screen, 48 h).
Work on `CCC1(O)C(=O)OCc2c1cc1n(c2=O)Cc2cc3cc(OC)c(OC)cc3nc2-1` (configuration not stated) yielded a TGI greater than 100 µM. `FC(F)(F)c1cccc(C=NC23CC4CC(CC(C4)C2)C3)c1` showed a TGI greater than 100 µM. For `O=C(CCC(=O)Nc1ccc(Cl)c(Cl)c1)CC(=O)c1ccc(Cl)cc1`, the TGI was greater than 100 µM. For `N#CNC1=NC(Cc2ccccc2)C(=O)N1CCc1c[nH]c2ccccc12` (configuration not stated), the TGI was greater than 100 µM.

What follows are molecules tested on OVCAR-3 ovarian (assay: NCI-60 cell line screen, 48 h).
Work on `CCC1(O)C(=O)OCc2c1cc1n(c2=O)Cc2cc3cc(OC)c(OC)cc3nc2-1` (configuration not stated) yielded a TGI greater than 100 µM. `FC(F)(F)c1cccc(C=NC23CC4CC(CC(C4)C2)C3)c1` gave a TGI greater than 100 µM. `O=C(CCC(=O)Nc1ccc(Cl)c(Cl)c1)CC(=O)c1ccc(Cl)cc1` showed a TGI greater than 100 µM. Molecule `COc1ccc(Cc2nccc3cc(OC)c(OC)cc23)cc1` has a TGI greater than 100 µM. For `N#CNC1=NC(Cc2ccccc2)C(=O)N1CCc1c[nH]c2ccccc12` (configuration not stated), the TGI was greater than 100 µM.

Each molecule was assayed on NCI-H23 lung (assay: NCI-60 cell line screen, 48 h).
Molecule `CCC1(O)C(=O)OCc2c1cc1n(c2=O)Cc2cc3cc(OC)c(OC)cc3nc2-1` (configuration not stated) has a TGI greater than 100 µM. Molecule `FC(F)(F)c1cccc(C=NC23CC4CC(CC(C4)C2)C3)c1` has a TGI greater than 100 µM. Work on `O=C(CCC(=O)Nc1ccc(Cl)c(Cl)c1)CC(=O)c1ccc(Cl)cc1` yielded a TGI greater than 100 µM. `COc1ccc(Cc2nccc3cc(OC)c(OC)cc23)cc1` was tested, and the TGI was greater than 100 µM. Work on `N#CNC1=NC(Cc2ccccc2)C(=O)N1CCc1c[nH]c2ccccc12` (configuration not stated) yielded a TGI greater than 100 µM.

The molecules below were run on DMS 273 small cell lung (assay: NCI-60 cell line screen, 48 h).
Molecule `FC(F)(F)c1cccc(C=NC23CC4CC(CC(C4)C2)C3)c1` has a TGI greater than 100 µM. In the case of `O=C(CCC(=O)Nc1ccc(Cl)c(Cl)c1)CC(=O)c1ccc(Cl)cc1`, the TGI is reported as greater than 100 µM. `N#CNC1=NC(Cc2ccccc2)C(=O)N1CCc1c[nH]c2ccccc12` (configuration not stated) was tested, and the TGI was greater than 100 µM.

These molecules were tested on NCI-H226 lung (assay: NCI-60 cell line screen, 48 h).
In the case of `CCC1(O)C(=O)OCc2c1cc1n(c2=O)Cc2cc3cc(OC)c(OC)cc3nc2-1` (configuration not stated), the TGI is reported as 88.6 µM. Work on `FC(F)(F)c1cccc(C=NC23CC4CC(CC(C4)C2)C3)c1` yielded a TGI greater than 100 µM. In the case of `O=C(CCC(=O)Nc1ccc(Cl)c(Cl)c1)CC(=O)c1ccc(Cl)cc1`, the TGI is reported as greater than 100 µM. `N#CNC1=NC(Cc2ccccc2)C(=O)N1CCc1c[nH]c2ccccc12` (configuration not stated) showed a TGI greater than 100 µM.

These molecules were tested on NCI-H460 lung (assay: NCI-60 cell line screen, 48 h).
`CCC1(O)C(=O)OCc2c1cc1n(c2=O)Cc2cc3cc(OC)c(OC)cc3nc2-1` (configuration not stated) showed a TGI of 28.5 µM. Work on `FC(F)(F)c1cccc(C=NC23CC4CC(CC(C4)C2)C3)c1` yielded a TGI greater than 100 µM. With `O=C(CCC(=O)Nc1ccc(Cl)c(Cl)c1)CC(=O)c1ccc(Cl)cc1` the TGI was greater than 100 µM. `COc1ccc(Cc2nccc3cc(OC)c(OC)cc23)cc1` gave a TGI greater than 100 µM.

What follows are molecules tested on TK-10 renal (assay: NCI-60 cell line screen, 48 h).
`CCC1(O)C(=O)OCc2c1cc1n(c2=O)Cc2cc3cc(OC)c(OC)cc3nc2-1` (configuration not stated) gave a TGI greater than 100 µM. `FC(F)(F)c1cccc(C=NC23CC4CC(CC(C4)C2)C3)c1` was tested, and the TGI was greater than 100 µM. Work on `O=C(CCC(=O)Nc1ccc(Cl)c(Cl)c1)CC(=O)c1ccc(Cl)cc1` yielded a TGI greater than 100 µM. `COc1ccc(Cc2nccc3cc(OC)c(OC)cc23)cc1` gave a TGI greater than 100 µM. In the case of `N#CNC1=NC(Cc2ccccc2)C(=O)N1CCc1c[nH]c2ccccc12` (configuration not stated), the TGI is reported as 89.9 µM.

The molecules below were run on DLD-1 colon (assay: NCI-60 cell line screen, 48 h).
`O=C(CCC(=O)Nc1ccc(Cl)c(Cl)c1)CC(=O)c1ccc(Cl)cc1` showed a TGI greater than 100 µM. For `COc1ccc(Cc2nccc3cc(OC)c(OC)cc23)cc1`, the TGI was greater than 100 µM. `N#CNC1=NC(Cc2ccccc2)C(=O)N1CCc1c[nH]c2ccccc12` (configuration not stated) showed a TGI greater than 100 µM.
